Test results taken from patent US4612302A, “Clinical use of somatostatin analogues” (Brigham and Women's Hospital, priority 1983, dated 1986).
Non-standard residues stand in square brackets, D forms with d. Residues, ends and D or L forms follow the SMILES beside them. No end group written: not given here.

How the values were obtained:
phagocytes = assay: Carbon clearance (colloidal carbon / India ink) from the blood of rats; format: in vivo, female Spraque-Dawley rats; details: for India ink (μl/ml blood) 3 min: 3 min after i.v. colloidal carbon; for India ink (μl/ml blood) 3 min / India ink (μl/ml blood) 6 min / India ink (μl/ml blood) 12 min / India ink (μl/ml blood) 24 min: 50 μg i.v. once daily for 3 days before carbon; for India ink (μl/ml blood) 6 min: 6 min after i.v. colloidal carbon; for India ink (μl/ml blood) 12 min: 12 min after i.v. colloidal carbon; for India ink (μl/ml blood) 24 min: 24 min after i.v. colloidal carbon; for Speed of action in carbon clearance compared with somatostatin: greater carbon clearance at 6 minutes than somatostatin; for Potency in carbon clearance compared with somatostatin: lower levels of carbon at the late time intervals
Procedure: Rats were injected either with saline or with a colloidal carbon suspension, and the time required for clearing of colloidal particles from the blood stream was measured. In a comparative experiment, zymosan, an agent known to increase the activity or phagocytes, was administered instead of the somatostatin analogue. In rats which received injections of saline, the disappearance of colloidal carbon from the blood was virtually linear, an expected result based on previous studies by others. Administration of a somatostatin analogue markedly accelerated the carbon clearance, even more so than for somatostatin itself.
(§1) All of the experiments described below were performed in female Spraque-Dawley rats (ESS Laboratories, Lynnfield, Mass.) with an initial body weight of 150-180 g, and with unlimited access to Purina laboratory chow and tap water. Control and experimental groups consisted of 3-4 rats. Each experiment was repeated at least twice and the results were pooled. Analogue I is cyclo[L-Pro-Phe-D-Trp-Lys-Thr-L-Phe]. Analogue II is cyclo[L-Phe-Phe-L-Trp-Lys-Thr-D-Phe]. These are preferred compounds for all aspects of the invention. The compound can be synthesized according to the procedure described in Veber et al., Nature, 292, 55-58 (1981), which is herein incorporated by reference. Basically, the linear peptide is prepared by a solid phase technique, for example, using a Beckman 990 peptide synthesizer following the protocol described in Strachan et al, J. Med. Chem., 22, 586-588 (1979), which is herein incorporated by reference. The linear peptide can then be cyclized by the technique of Veber et al, Proc. Natl. Acad. Sci. USA, 75, 2636-2640 (1978), which is also herein incorporated by reference. Linear or cyclic somatostatin (Serono) or a somatostatin analogue was injected under mild ether anesthesia at 50 μg in 0.5 ml of saline into the jugular vein once daily for 3 consecutive days prior to injection with carbon. Control animals were injected with the same amount of saline. In all of the carbon clearance experiments, 0.1 ml/100 g of the supernatant of centrifuged (3000 rpm/15 min) colloidal carbon (Wagner's india ink) was injected i.v. under mild ether anesthesia. Blood samples (50 μl) were obtained with heparinized glass capillaries and by puncture of the retro-orbital venous plexus at 3, 6, 12 and 24 minutes after the administration of carbon. The blood samples were lysed in 2 ml of 0.1% Na2 CO3 solution and the quantity of carbon in the blood was measured.

[1] = tested on: liver injury induced by galactosamine; assay: Galactosamine-induced liver injury (hepatic necrosis and inflammation) in rats; format: in vivo, female Spraque-Dawley rats; details: 28 hr after galactosamine 1 g/kg i.p., somatostatin 250 μg, analogues 125 μg i.p.; for Liver histology (Scale: 0-4): scale 0-4, 4 = greatest damage
Procedure: as §1
The liver protection studies included the effect of somatostatin and analogues on liver injury induced by galactosamine or phalloidin. Galactosamine-induced hepatic necrosis and inflammation was produced by injecting rats with 1 g/kg of galactosamine i.p. at 0 hr. Regular somatostatin was injected at 250 μg, analogues at 125 μg i.p. at -30 and […]. The animals were killed at 28 hr after galactosamine. Liver damage was measured by the elevation of serum transaminase (SGOT) and by liver histology (scale: 0-4 with 4 indicating the greatest damage).

[2] = tested on: liver injury induced by phalloidin; assay: Phalloidin-induced liver and hepatic blood vessel lesions in rats; format: in vivo; details: phalloidin 0.12 mg per 100 g i.p.
Procedure: This toxin kills rats within about 4 hours after intraperitoneal injection. Rats injected with 0.12 mg phalloidin per 100 g body weight (i.p.) show a massive increase in liver size accompanied by hemorrhage. In a control group of rats given phalloidin but no somatostatin analogue, 22 of 24 rats died within 2-4 hours.
In both cases, rats were given saline (control), phalloidin alone, or phalloidin and a somatostatin analogue. Somatostatin analogues were given in subcutaneous injections in a solution of protamine sulfate and zinc chloride in order to prolong its effectiveness, or in normal saline.
In the biochemical experiments, the animals were also injected with Evans blue 15 min before autopsy. At autopsy the portal vein was perfused in situ with 20 ml of saline to remove blood from hepatic vaculature. Phalloidin caused a time dependent increase in the hepatic uptake of Evans blue, indicative of leakage of blood into the tissue through blood vessel lesions. Somatostatin analogue treatment virtually abolished this enhanced uptake of the dye. In the morphologic experiments, groups of rats were also injected with colloidal carbon (India ink, […] i.v.) 15 min before autopsy. At that time pieces of liver were processed for subsequent light or electron microscopic studies. […]

Q: Which results are given for C[C@@H](O)[C@@H]1NC(=O)[C@H](CCCCN)NC(=O)[C@@H](Cc2c[nH]c3ccccc23)NC(=O)[C@H](Cc2ccccc2)NC(=O)[C@@H]2CCCN2C(=O)[C@H](Cc2ccccc2)NC1=O [Analogue I, cyclo[L-Pro-Phe-D-Trp-Lys-Thr-L-Phe]] (cyclo(PF[dW]KTF))?
A: India ink (μl/ml blood) 3 min (phagocytes): 12.5 ± 3.0 μl/ml blood; India ink (μl/ml blood) 6 min (phagocytes): 6.9 ± 0.9 μl/ml blood; India ink (μl/ml blood) 12 min (phagocytes): 2.6 ± 0.7 μl/ml blood; India ink (μl/ml blood) 24 min (phagocytes): 2.4 ± 0.5 μl/ml blood; Speed of action in carbon clearance compared with somatostatin (phagocytes): faster acting; Potency in carbon clearance compared with somatostatin (phagocytes): more potent than somatostatin; SGOT (U/l) [1]: 573 ± 138 U/l; Liver histology (Scale: 0-4) [1]: 1.1 ± 0.1

Q: How did the “India ink (μl/ml blood) 3 min” value (phagocytes) turn out when C[C@@H](O)[C@@H]1NC(=O)[C@H](CCCCN)NC(=O)[C@H](Cc2c[nH]c3ccccc23)NC(=O)[C@H](Cc2ccccc2)NC(=O)[C@H](Cc2ccccc2)NC(=O)[C@@H](Cc2ccccc2)NC1=O [Analogue II, cyclo[L-Phe-Phe-L-Trp-Lys-Thr-D-Phe]] (cyclo(FFWKT[dF])) was run?
A: 13.2 ± 2.0 μl/ml blood

Q: And the “India ink (μl/ml blood) 6 min” value (phagocytes)?
A: 5.6 ± 0.5 μl/ml blood

Q: And the “India ink (μl/ml blood) 12 min” value (phagocytes)?
A: 3.2 ± 0.9 μl/ml blood

Q: What about the “India ink (μl/ml blood) 24 min” value (phagocytes) of the same compound?
A: 1.8 ± 0.2 μl/ml blood

Q: What about the “Speed of action in carbon clearance compared with somatostatin” value (phagocytes) of the same compound?
A: faster acting

Q: And the “Potency in carbon clearance compared with somatostatin” value (phagocytes)?
A: more potent than somatostatin

Q: And the “SGOT (U/l)” value [1]?
A: 700 U/l

Q: And the “Liver histology (Scale: 0-4)” value [1]?
A: 1.0

Q: How did the “India ink (μl/ml blood) 3 min” value (phagocytes) turn out when C[C@H](N)C(=O)NCC(=O)N[C@H]1CSSC[C@@H](C(=O)O)NC(=O)[C@H](CO)NC(=O)[C@H]([C@@H](C)O)NC(=O)[C@H](Cc2ccccc2)NC(=O)[C@H]([C@@H](C)O)NC(=O)[C@H](CCCCN)NC(=O)[C@H](Cc2c[nH]c3ccccc23)NC(=O)[C@H](Cc2ccccc2)NC(=O)[C@H](Cc2ccccc2)NC(=O)[C@H](CC(N)=O)NC(=O)[C@H](CCCCN)NC1=O [Regular linear somatostatin, somatostatin] was run?
A: 11.7 ± 0.1 μl/ml blood

Q: And the “India ink (μl/ml blood) 6 min” value (phagocytes)?
A: 11.9 ± 2.6 μl/ml blood

Q: And the “India ink (μl/ml blood) 12 min” value (phagocytes)?
A: 5.3 ± 1.4 μl/ml blood

Q: What about the “India ink (μl/ml blood) 24 min” value (phagocytes) of the same compound?
A: 2.6 ± 0.1 μl/ml blood

Q: What does the source list for “somatostatin (AGCKNFFWKTFTSC; not fully specified (bridges); cysteine pairing not given here; UniProt P61278 103-116, looked up) [cyclic tetradecapeptide hormone, reference compound]”?
A: Histologic examination of the liver after phalloidin [2]: milder vacuolization of hepatocytes and less congestion; Mortality after phalloidin ([2]; control 22 of 24 rats died): significantly smaller number of rats; SGOT (U/l) [1]: 1757 ± 681 U/l; Liver histology (Scale: 0-4) [1]: 2.6 ± 0.3
